Experimental data: US20240400560A1, “BICYCLIC HETEROCYCLIC DERIVATIVE HAVING VIRAL GROWTH INHIBITORY ACTIVITY AND PHARMACEUTICAL COMPOSITION CONTAINING SAME” (Shionogi & Co., Ltd., priority 2021, published 2024)
pEC50, pIC50: −log10 of the molar value. Read-outs that look alike come from different tables or passages of the source.

Experiments:
[1] = system: SARS-CoV-2; test: Inhibitory activity of cytopathic effect (CPE) in HEK293T/ACE2-TMPRSS2 cells; type: cell-based
[2] = biological target: SARS-CoV-2 3CL protease (Severe acute respiratory syndrome coronavirus 2, UniProt P0DTD1); test: Inhibitory activity test against SARS-CoV-2 3CL proteases; type: biochemical
[3] = Severe acute respiratory syndrome coronavirus 2, HEK-293T, 72 h, 50% SARS-CoV-2 infected cell death inhibitory concentration, HEK293T/ACE2-TMPRSS2 cells, CellTiter-Glo 2.0 after 3 days culture, read-out: EC50
[4] = read-out: IC50 (50% SARS-CoV-2 3CL protease inhibitory concentration)
[5] = Severe acute respiratory syndrome coronavirus 2, HEK-293T, 72 h, read-out: EC50 (50% SARS-CoV-2 infected cell death inhibitory concentration)
[6] = IC50 (50% SARS-CoV-2 3CL protease inhibitory concentration)
[7] = Severe acute respiratory syndrome coronavirus 2, HEK-293T, 72 h, HEK293T/ACE2-TMPRSS2 cells, cultured 3 days, CellTiter-Glo 2.0 luminescence, read-out: EC50 (50% SARS-CoV-2 infected cell death inhibitory concentration)
[8] = Severe acute respiratory syndrome coronavirus 2, HEK-293T, 72 h

SMILES | pEC50 [1, 3] | pIC50 [2, 4] | pEC50 [1, 7] | other results
COc1nc(N2CC[C@@H](C#N)C2)cc2c1c(=O)n(Cc1ncn(C)n1)c(=O)n2Cc1cc(F)c(F)c(F)c1 [Compound I-0598] | 7.87 | 7.74 |  | 
COc1nc(N2[C@H]3CC[C@@H]2[C@@H](O)C3)cc2c1c(=O)n(Cc1ncn(C)n1)c(=O)n2Cc1cc(F)c(F)c(F)c1 [Compound I-0602] |  |  |  | pEC50 [1, 5]: > 7.00; pIC50 [2, 6]: > 7.00
COc1nc(N2C3CCC(O)C2CC3)cc2c1c(=O)n(Cc1ncn(C)n1)c(=O)n2Cc1cc(F)c(F)c(F)c1 (stereo not shown) [Compound I-0610] |  |  |  | pEC50 [1, 5]: > 7.00; pIC50 [2, 6]: > 7.00
O=c1[nH]c(N2CCC[C@@H]2CO)cc2c1c(=O)n(-c1cnc3ccccn13)c(=O)n2Cc1cc(F)c(F)c(Cl)c1 [Compound I-0623] |  | > 7.00 | > 7.00 | 
COc1nc(N2CC[C@@H](C(=O)O)C2)cc2c1c(=O)n(-c1cnc3cc(F)ccn13)c(=O)n2-c1ccc(F)c(Cl)c1 [Compound I-0625] |  | > 7.00 | 6.00 to 7.00 | 
CCNC(=O)[C@@H]1CCN(c2cc3c(c(OC)n2)c(=O)n(-c2cnc4cc(F)ccn24)c(=O)n3-c2ccc(F)c(Cl)c2)C1 [Compound I-0626] | 7.26 | 7.85 |  | 
COc1nc(N2CC[C@@H](C(=O)N3CCOCC3)C2)cc2c1c(=O)n(-c1cnc3cc(F)ccn13)c(=O)n2-c1ccc(F)c(Cl)c1 [Compound I-0627] |  | > 7.00 | > 7.00 | 
O=c1c2c(=O)n(-c3cnc4cc(F)ccn34)c(=O)n(-c3ccc(F)c(Cl)c3)c2cc2n1C[C@@H]1CCCN21 [Compound I-0628] | 6.18 | 7.59 |  | 
Cn1cnc(Cn2c(=O)c3c4ncccc4c(-c4cc(C#N)ccc4Cl)cc3n(Cc3cc(F)c(F)c(F)c3)c2=O)n1 [Compound I-0632] | 7.30 | 8.51 |  | 
Cc1c(-c2cc(C#N)ccc2Cl)cc2c(c1F)c(=O)n(Cc1ncn(C)n1)c(=O)n2Cc1cc(F)c(F)c(Cl)c1 [Compound I-0637] |  | > 7.00 | > 7.00 | 
Cn1cnc(Cn2c(=O)c3c(F)c(C4CC4)c(-c4cc(C#N)ccc4Cl)cc3n(Cc3cc(F)c(F)c(Cl)c3)c2=O)n1 [Compound I-0638] |  | > 7.00 | > 7.00 | 
Cn1cnc(Cn2c(=O)c3c(cc(-c4cc(C#N)ccc4Cl)n4nnnc34)n(Cc3cc(F)c(F)c(F)c3)c2=O)n1 [Compound I-0639] |  | > 7.00 | 6.00 to 7.00 | 
Cn1cnc(Cn2c(=O)c3c(cc(-c4cc(C#N)ccc4Cl)n4ccnc34)n(Cc3cc(F)c(F)c(F)c3)c2=O)n1 [Compound I-0642] | 6.19 | 8.52 |  | 
Cc1cnc2c3c(=O)n(Cc4ncn(C)n4)c(=O)n(Cc4cc(F)c(F)c(F)c4)c3cc(-c3cc(C#N)ccc3Cl)n12 [Compound I-0643] | 6.28 | 8.37 |  | 
Cn1cnc(Cn2c(=O)c3c(cc(-c4cc(C#N)ccc4Cl)n4ncnc34)n(Cc3cc(F)c(F)c(F)c3)c2=O)n1 [Compound I-0645] |  | 6.00 to 7.00 | 6.00 to 7.00 | 
COc1nc(N2[C@@H]3CC[C@H]2CNC3)cc2c1c(=O)n(-c1cnc3ccccn13)c(=O)n2Cc1cc(F)c(F)c(F)c1 [Compound I-0646] |  |  |  | pEC50 [1, 5]: > 7.00; pIC50 [2, 6]: > 7.00
Cn1cnc(Cn2c(=O)c3c(cc(-c4cc(C#N)ccc4Cl)n4c(=O)[nH]nc34)n(Cc3cc(F)c(F)c(F)c3)c2=O)n1 [Compound I-0647] | 4.86 | 8.24 |  | 
COc1nc(N2[C@@H]3CCC[C@H]2CNC3)cc2c1c(=O)n(-c1cnc3ccccn13)c(=O)n2Cc1cc(F)c(F)c(Cl)c1 [Compound I-0648] |  |  |  | pEC50 [1, 5]: > 7.00; pIC50 [2, 6]: > 7.00
COc1nc(N2[C@@H]3CC[C@H]2CNC3)cc2c1c(=O)n(-c1cnc3ccc(Cl)cn13)c(=O)n2Cc1cc(Cl)ccc1Cl [Compound I-0649] |  |  |  | pEC50 [1, 5]: > 7.00; pIC50 [2, 6]: > 7.00

SMILES | pEC50 [1, 3] | pIC50 [2, 4] | pEC50 [1, 7] | other results
COc1cc(N2[C@@H]3CC[C@H]2CNC3)cc2c1c(=O)n(-c1cnc3cc(F)ccn13)c(=O)n2Cc1cc(Cl)c(F)cc1C [Compound I-0650] |  |  |  | pEC50 [1, 8]: 7.56; pIC50 [2, 6]: 8.92
COc1nc(NC(C)C)cc2c1c(=O)n(-c1cnc3cc(F)ccn13)c(=O)n2-c1ccc(F)c(Cl)c1 [Compound I-0651] | 7.89 | 8.07 |  | 
COc1nc(N2CC[C@@H](C#N)C2)cc2c1c(=O)n(-c1cnc3cc(F)ccn13)c(=O)n2-c1ccc(F)c(Cl)c1 [Compound I-0652] | 8.13 | 8.85 |  | 
COCCN(C)c1cc2c(c(OC)n1)c(=O)n(-c1cnc3cc(F)ccn13)c(=O)n2-c1ccc(F)c(Cl)c1 [Compound I-0653] | 7.94 | 7.85 |  | 
COc1nc(N2CCC(F)(F)C2)cc2c1c(=O)n(-c1cnc3ccc(C#N)cn13)c(=O)n2-c1ccc(F)c(Cl)c1 [Compound I-0654] |  | > 7.00 | > 7.00 | 
COc1nc(N2CCC(F)(F)C2)cc2c1c(=O)n(-c1cnc3cc(F)c(Cl)cn13)c(=O)n2-c1ccc(F)c(Cl)c1 [Compound I-0655] |  | > 7.00 | > 7.00 | 
CCC(=O)c1ccc(Cl)c(-c2cc(OC)c3c(=O)n(Cc4ncn(C)n4)c(=O)n(Cc4cc(F)c(F)c(F)c4)c3c2)c1 [Compound I-0657] | 7.12 | 7.70 |  | 
Cc1cncc(-n2c(=O)c3c(n(Cc4cc(F)c(F)c(F)c4)c2=O)CN(c2cc(C#N)ccc2Cl)CC3)c1 [Compound I-0658] |  | 6.00 to 7.00 | 6.00 to 7.00 | 
COc1cc(-c2cc(C#N)ccc2Cl)cc2c1c(=O)n(-c1cnc3ccccn13)c(=O)n2Cc1cc(F)c(F)c(F)c1 [Compound I-0660] |  | > 7.00 | > 7.00 | 
COc1cc(-c2cc(C#N)ccc2Cl)cc2c1c(=O)n(-c1cnc3ccccn13)c(=O)n2Cc1cc(F)c(F)c(F)c1 [Compound I-0661] |  | > 7.00 |  | pEC50 ([1]; HEK293T/ACE2-TMPRSS2 cells, cultured 3 days, CellTiter-Glo 2.0 luminescence, read-out: EC50 (50% SARS-CoV-2 infected cell death inhibitory concentration)): > 7.00
COc1cc(N2[C@@H]3CC[C@H]2CNC3)cc2c1c(=O)n(-c1cnc3ccccn13)c(=O)n2Cc1cc(F)c(F)c(F)c1 [Compound I-0666] |  |  |  | pEC50 [1, 5]: 6.00 to 7.00; pIC50 [2, 6]: > 7.00
COc1nc(N2[C@@H]3CC[C@H]2CNC3)cc2c1c(=O)n(-c1cnc3ccc(Cl)cn13)c(=O)n2Cc1cc(F)c(F)c(F)c1 [Compound I-0671] |  |  |  | pEC50 [1, 8]: 7.68; pIC50 [2, 6]: 8.48
COc1nc(-c2cc(C#N)ccc2Cl)cc2c1c(=O)n(-c1cnc3cc(F)ccn13)c(=O)n2Cc1cc(F)c(F)c(F)c1 [Compound I-0672] |  | > 7.00 | > 7.00 | 
COc1nc(N2CC[C@@H](F)C2)cc2c1c(=O)n(-c1cnc3cc(F)ccn13)c(=O)n2Cc1cc(F)c(F)c(F)c1 [Compound I-0673] |  | > 7.00 | > 7.00 | 
COc1nc(-c2cc(C#N)ccc2Cl)cc2c1c(=O)n(-c1cnc3ccc(F)cn13)c(=O)n2Cc1cc(F)c(F)c(F)c1 [Compound I-0680] |  | > 7.00 | > 7.00 | 
Cn1c(-c2cc(C#N)ccc2Cl)cc2c(c1=O)c(=O)n(-c1cnc3ccc(F)cn13)c(=O)n2Cc1cc(F)c(F)c(F)c1 [Compound I-0681] |  | > 7.00 | > 7.00 | 
COc1nc(N2[C@@H]3CC[C@H]2CNC3)cc2c1c(=O)n(-c1cnc3cc(F)ccn13)c(=O)n2Cc1cc(F)c(F)c(F)c1 [Compound I-0682] |  |  |  | pEC50 [1, 5]: > 7.00; pIC50 [2, 6]: > 7.00
COc1nc(N2[C@@H]3CC[C@H]2CNC3)cc2c1c(=O)n(-c1cnc3cc(Cl)ccn13)c(=O)n2Cc1cc(F)c(F)c(F)c1 [Compound I-0683] |  |  |  | pEC50 [1, 8]: 7.34; pIC50 [2, 6]: 8.00
Cn1cnc(Cn2c(=O)c3ncc(N4C[C@H]5C[C@@H]4CN5)nc3n(Cc3cc(F)c(F)c(F)c3)c2=O)n1 [Compound I-0684] | 5.34 | 6.43 |  | 
